# Experimental data from patent US11478470B2, “Combination product of Bcl-2 inhibitor or Bcl-2/Bcl-xL dual inhibitor and BTK inhibitor and use thereof in the prevention and/or treatment of diseases” (ASCENTAGE PHARMA (SUZHOU) CO., LTD., priority 2018, dated 2022).
# Read-outs that look alike come from different tables or passages of the source.
# Columns and labels:
# [1] = system: human OCI-LY1 (DLBCL) xenograft tumor; format: in vivo
# Protocol: (§1) All animal experiments were strictly in accordance with the laboratory animal use and management practices of GenePharma Co., Ltd. and Ascentage Pharma Group Co., Ltd. The calculation of relevant parameters referred to the Chinese CFDA “Guidelines for Non-Clinical Research Techniques of Cytotoxic Antitumor Drugs”.
# (§2) Animal body weight and tumor size were measured twice a week during the experiment. Tumor growth was observed periodically, and the animals were randomly divided into groups according to tumor size and mouse body weight when the tumors grew to an average volume of 100-200 mm^3. The conditions and death of the animals were observed every day. Routine monitoring included the effects of tumor growth and treatment on normal animal behaviors, including activity, feeding and drinking situations, weight gain or loss, eyes, coat and other abnormalities in the experimental animals. The deaths and clinical symptoms observed during the experiment were recorded in the raw data. The entire operations of administration, measurement of mouse body weight and tumor volume were performed in a clean bench. Plasma and tumor tissues were collected, weighed and photographed after the end of the last administration according to the experimental protocol. Plasma and tumor samples were frozen and stored at −80° C.
# (§3) Tumor volume (TV) was calculated as: TV=a×b^2/2, in which a and b represented the length and width of the tumor as measured, respectively. The relative tumor volume (RTV) was calculated as: RTV=Vt/V1, in which V1 was the tumor volume at the time of grouping and administration, and Vt was the tumor volume measured on a day after administration. […] Change of body weight %=(measured body weight−body weight at the time of grouping)/body weight at the time of grouping×100%.
# (§4) If the synergy factor was >1, there was a synergistic effect; if the synergistic factor=1, there was an additive effect; if the synergistic factor <1, there was an antagonistic effect.
# In short, when the average tumor volume reached approximately 90 mm^3, grouping and administration started. Ibrutinib was administered at a dose of 15 mg/kg, i.v., qd, from the day of grouping, for 3 weeks. […] On the 13th day after grouping, the administration was stopped and the observation period started.
# [2] = system: human DOHH2 (FL) xenograft tumor; format: in vivo; settings: Cpd. 6 100 mg/kg, Ibrutinib 25 mg/kg
# Protocol: as §1, §2, §3, §4
# [3] = system: various hematological malignancies cell lines including those from DLBCL and FL; assay: Anti-proliferative activity as single agent in hematological malignancies cell lines (data not shown); format: cell-based
# [4] = Cpd. 6 100 mg/kg p.o. qd, Ibrutinib 15 mg/kg i.v. qd, day 43
# [5] = Cpd. 6 100 mg/kg, Ibrutinib 15 mg/kg, including CR, PR and SD
# [6] = Cpd. 6 100 mg/kg, Ibrutinib 15 mg/kg, mice per group
# [7] = Cpd. 6 100 mg/kg, Ibrutinib 15 mg/kg, mice per group, listed as Cpd. 6
smiles,measurement,setting,value
"O=C(NS(=O)(=O)c1ccc(NC[C@H]2COCCO2)c([N+](=O)[O-])c1)c1ccc(N2CCN(CC3=C(c4ccc(Cl)cc4)CC4(CCC4)CC3)CC2)cc1Oc1cnc2[nH]ccc2c1 [Compound 6, (S)-N-((4-(((1,4-dioxan-2-yl)methyl)amino)-3-nitrophenyl)sulfonyl)-2-((1H-pyrrolo[2,3-b]pyridin-5-yl)oxy)-4-(4-((6-(4-chlorophenyl)spiro[3.5]non-6-en-7-yl)methyl)piperazin-1-yl)benzamide]",RTV on the 43rd day after administration (mean ± standard error),[1]; [4],1.03 ± 0.33
same,T/C (%) on day 43 after administration,[1]; [4],4%
same,TGI (%) on day 43 after administration,"[1]; Cpd. 6 100 mg/kg, Ibrutinib 15 mg/kg, TGI = 100 − T/C%",96%
same,RTV on day 50 after administration (mean ± standard error),"[1]; Cpd. 6 100 mg/kg, Ibrutinib 15 mg/kg, day 50",2.64 ± 0.55
same,remission rate % on day 43 after administration,[1]; [5],20%
same,remission rate % on day 50 after administration,[1]; [5],( 10% )
same,remission rate % on day 68 after administration,[1]; [5],PR ( 0% )
same,remission rate % on day 43 after administration,"[1]; Cpd. 6 100 mg/kg, Ibrutinib 15 mg/kg, including CR, PR and SD, listed as Cpd. 6",( 100% )
same,Tumor status on day 43 after administration: CR (tumor complete regression),[1]; [6],1/5
same,Tumor status on day 43 after administration: PR (tumor partial regression),[1]; [6],1/5
same,Tumor status on day 50 after administration: CR,[1]; [6],"0/5 CR,"
same,Tumor status on day 50 after administration: PR,[1]; [6],1/5 PR
same,Tumor status on day 68 after administration: CR,[1]; [6],"0/5 CR, 0/5"
same,Tumor status on day 68 after administration: PR,[1]; [6],"0/5 CR, 0/5"
same,Tumor status on day 43 after administration: CR (tumor complete regression),[1]; [7],"1/5 CR, 1/5"
same,Tumor status on day 43 after administration: PR (tumor partial regression),[1]; [7],"1/5 CR, 1/5"
same,TGI (%) on day 32 after administration,[2]; TGI = 100 − T/C%,81%
same,RTV on day 32 after administration (mean ± standard error),[2]; day 32,2.4 ± 0.2
same,T/C (%) on day 32 after administration,[2]; day 32,19%
same,anti-proliferative activities as a single agent compared with ABT-199,[3],comparable if not better than ABT-199
